Values quoted from earlier work, collected in patent US7481758B2, “Pharmaceutically enhanced low-energy radiosurgery” (Sirius Medicine, LLC, priority 1997, dated 2009).

Columns and labels:
lymphocytes = conditions: in lymphocytes; low-energy photons
brain tumors = conditions: low-energy x-rays and iodine, brain tumors in rabbits

II [iodine]
dose enhancement (lymphocytes): up to 3 | dose enhancement (brain tumors): about 30%
